This is an account of results in BindingDB's records for PubMed 35973549 (Pharmaxis, 2022).

Structures are written as SMILES.

By IC50 is commonly meant the concentration at which inhibition is half-maximal.

The assay in a line: Inhibition of recombinant human SSAO.
As to `NCC(=CF)COc1ccccc1`, the IC50 was 6 nM.

Turning to `NC/C(=C\F)COc1ccccc1`, the IC50 is 19 nM.

With `Cc1ccccc1OC/C(=C/F)CN`, the half-maximal inhibitory concentration (IC50) came out at 288 nM.
